ChEMBL document CHEMBL1145390, “Synthesis and preliminary biological characterization of new semisynthetic derivatives of ramoplanin” (J Med Chem, 2007)
Values after ≈ are worked out from the molar mass of the structure shown.

Key:
Enterococcus faecalis [1] = assay: Antibacterial activity against vancomycin A-resistant Enterococcus faecalis after 24 hrs by broth microdilution method; assay type: functional; settings: read-out: MIC
Staphylococcus aureus [2] = assay: Antibacterial activity against Staphylococcus aureus Smith after 24 hrs by broth microdilution method; assay type: functional; settings: read-out: MIC
Enterococcus faecalis [3] = assay: Antibacterial activity against Enterococcus faecalis after 24 hrs by broth microdilution method; assay type: functional; settings: read-out: MIC
Escherichia coli = assay: Antibacterial activity against Escherichia coli SKF-12140 after 24 hrs by broth microdilution method; assay type: functional; settings: read-out: MIC
[4] = Toxicity assessed as hemolysis in erythrocytes at 90 mg/L; assay type: cell-based, Erythrocyte; settings: human, erythrocytes; read-out: Activity
Staphylococcus aureus [5] = assay: Antibacterial activity against vancomycin-intermediate resistant Staphylococcus aureus clinical isolate after 24 hrs by broth microdilution method; assay type: functional
[6] = Toxicity assessed as hemolysis in erythrocytes at 180 mg/L; assay type: cell-based, Erythrocyte; settings: human, erythrocytes; read-out: Activity
Enterococcus faecium [7] = assay: Antibacterial activity against Enterococcus faecium after 24 hrs by broth microdilution method; assay type: functional; settings: read-out: MIC
Enterococcus faecium [8] = assay: Antibacterial activity against vancomycin A-resistant Enterococcus faecium clinical isolate after 24 hrs by broth microdilution method; assay type: functional; settings: read-out: MIC
Staphylococcus aureus [9] = assay: Antibacterial activity against methicillin-resistant and vancomycin-intermediate resistant Staphylococcus aureus clinical isolate after 24 hrs by broth microdilution method; assay type: functional; settings: read-out: MIC
Candida albicans = assay: Antifungal activity against Candida albicans SKF-2270 after 24 hrs by broth microdilution method; assay type: functional; settings: read-out: MIC
Staphylococcus aureus [10] = assay: Antibacterial activity against methicillin-resistant Staphylococcus aureus clinical isolate after 24 hrs by broth microdilution method; assay type: functional; settings: read-out: MIC
Streptococcus pyogenes = assay: Antibacterial activity against Streptococcus pyogenes C203 after 24 hrs by broth microdilution method; assay type: functional; settings: C203, 24 h, read-out: MIC

| SMILES | MIC (Enterococcus faecalis [1]) | MIC (Staphylococcus aureus [2]) | MIC (Enterococcus faecalis [3]) | MIC (Escherichia coli) | hemolysis at 90 mg/L [4] | MIC (Staphylococcus aureus [5]) | hemolysis at 180 mg/L [6] | MIC (Enterococcus faecium [7]) | MIC (Enterococcus faecium [8]) | MIC (Staphylococcus aureus [9]) | MIC (Candida albicans) | MIC (Staphylococcus aureus [10]) | MIC (Streptococcus pyogenes) |
| --- | --- | --- | --- | --- | --- | --- | --- | --- | --- | --- | --- | --- | --- |
| CC(C)C[C@@H]1NC(=O)CNC(=O)[C@H](c2ccc(O)cc2)NC(=O)[C@@H]([C@@H](C)O)NC(=O)[C@H](c2ccc(O[C@H]3O[C@H](CO)[C@@H](O)[C@H](O)[C@@H]3O[C@H]3O[C@H](CO)[C@@H](O)[C@H](O)[C@@H]3O)cc2)NC(=O)[C@@H](CCCN)NC(=O)[C@H](Cc2ccccc2)NC(=O)[C@H]([C@@H](C)O)NC(=O)[C@@H](c2ccc(O)cc2)NC(=O)[C@H](c2ccc(O)cc2)NC(=O)[C@@H](C(C)C)NC(=O)[C@@H](CCCN)NC(=O)[C@@H](c2ccc(O)cc2)NC(=O)[C@@H](CNC(=O)[C@H](CC(N)=O)NC(=O)CCc2ccccc2)[C@@H](C(N)=O)OC(=O)[C@H](c2ccc(O)c(Cl)c2)NC(=O)[C@@H](C)NC1=O | 2 µg/mL (≈ 0.781 µM) | 16 µg/mL (≈ 6.24 µM) | 2 µg/mL (≈ 0.781 µM) | > 32 µg/mL | 0% | 8 µg/mL (≈ 3.12 µM) | 0% | 1 µg/mL (≈ 0.39 µM) | 2 µg/mL (≈ 0.781 µM) | 8 µg/mL (≈ 3.12 µM) | > 32 µg/mL | 2 µg/mL (≈ 0.781 µM) | ≤ 0.03 µg/mL |
| CC(C)C[C@@H]1NC(=O)CNC(=O)[C@H](c2ccc(O)cc2)NC(=O)[C@@H]([C@@H](C)O)NC(=O)[C@H](c2ccc(O[C@H]3O[C@H](CO)[C@@H](O)[C@H](O)[C@@H]3O[C@H]3O[C@H](CO)[C@@H](O)[C@H](O)[C@@H]3O)cc2)NC(=O)[C@@H](CCCN)NC(=O)[C@H](Cc2ccccc2)NC(=O)[C@H]([C@@H](C)O)NC(=O)[C@@H](c2ccc(O)cc2)NC(=O)[C@H](c2ccc(O)cc2)NC(=O)[C@@H](C(C)C)NC(=O)[C@@H](CCCN)NC(=O)[C@@H](c2ccc(O)cc2)NC(=O)[C@@H](CNC(=O)[C@H](CC(N)=O)NC(=O)c2ccc3ccccc3c2)[C@@H](C(N)=O)OC(=O)[C@H](c2ccc(O)c(Cl)c2)NC(=O)[C@@H](C)NC1=O | 0.25 µg/mL (≈ 0.0967 µM) | 0.125 µg/mL (≈ 0.0484 µM) | 0.125 µg/mL (≈ 0.0484 µM) | > 32 µg/mL | 8% | 1 µg/mL (≈ 0.387 µM) | 40% | 0.25 µg/mL (≈ 0.0967 µM) | 0.25 µg/mL (≈ 0.0967 µM) | 2 µg/mL (≈ 0.774 µM) | > 32 µg/mL | 0.25 µg/mL (≈ 0.0967 µM) | ≤ 0.03 µg/mL |
| CC(C)C[C@@H]1NC(=O)CNC(=O)[C@H](c2ccc(O)cc2)NC(=O)[C@@H]([C@@H](C)O)NC(=O)[C@H](c2ccc(O[C@H]3O[C@H](CO)[C@@H](O)[C@H](O)[C@@H]3O[C@H]3O[C@H](CO)[C@@H](O)[C@H](O)[C@@H]3O)cc2)NC(=O)[C@@H](CCCN)NC(=O)[C@H](Cc2ccccc2)NC(=O)[C@H]([C@@H](C)O)NC(=O)[C@@H](c2ccc(O)cc2)NC(=O)[C@H](c2ccc(O)cc2)NC(=O)[C@@H](C(C)C)NC(=O)[C@@H](CCCN)NC(=O)[C@@H](c2ccc(O)cc2)NC(=O)[C@@H](CNC(=O)[C@H](CC(N)=O)NC(=O)Cc2ccc(Cl)cc2)[C@@H](C(N)=O)OC(=O)[C@H](c2ccc(O)c(Cl)c2)NC(=O)[C@@H](C)NC1=O | 0.5 µg/mL (≈ 0.194 µM) | 0.5 µg/mL (≈ 0.194 µM) | 0.5 µg/mL (≈ 0.194 µM) | > 32 µg/mL | 0% | 2 µg/mL (≈ 0.774 µM) | 0% | 1 µg/mL (≈ 0.387 µM) | 1 µg/mL (≈ 0.387 µM) | 4 µg/mL (≈ 1.55 µM) | > 32 µg/mL | 0.5 µg/mL (≈ 0.194 µM) | ≤ 0.03 µg/mL |
| CCCCCOc1ccc(C(=O)N[C@@H](CC(N)=O)C(=O)NC[C@@H]2C(=O)N[C@H](c3ccc(O)cc3)C(=O)N[C@H](CCCN)C(=O)N[C@H](C(C)C)C(=O)N[C@@H](c3ccc(O)cc3)C(=O)N[C@H](c3ccc(O)cc3)C(=O)N[C@@H]([C@@H](C)O)C(=O)N[C@@H](Cc3ccccc3)C(=O)N[C@H](CCCN)C(=O)N[C@@H](c3ccc(O[C@H]4O[C@H](CO)[C@@H](O)[C@H](O)[C@@H]4O[C@H]4O[C@H](CO)[C@@H](O)[C@H](O)[C@@H]4O)cc3)C(=O)N[C@H]([C@@H](C)O)C(=O)N[C@@H](c3ccc(O)cc3)C(=O)NCC(=O)N[C@@H](CC(C)C)C(=O)N[C@H](C)C(=O)N[C@@H](c3ccc(O)c(Cl)c3)C(=O)O[C@@H]2C(N)=O)cc1 | 0.25 µg/mL (≈ 0.0954 µM) | 8 µg/mL (≈ 3.05 µM) | 0.25 µg/mL (≈ 0.0954 µM) | > 32 µg/mL | 8% | 4 µg/mL (≈ 1.53 µM) | 10% | 0.25 µg/mL (≈ 0.0954 µM) | 0.25 µg/mL (≈ 0.0954 µM) | 8 µg/mL (≈ 3.05 µM) | > 32 µg/mL | 2 µg/mL (≈ 0.763 µM) | 0.25 µg/mL (≈ 0.0954 µM) |
| CCCCc1ccc(C(=O)N[C@@H](CC(N)=O)C(=O)NC[C@@H]2C(=O)N[C@H](c3ccc(O)cc3)C(=O)N[C@H](CCCN)C(=O)N[C@H](C(C)C)C(=O)N[C@@H](c3ccc(O)cc3)C(=O)N[C@H](c3ccc(O)cc3)C(=O)N[C@@H]([C@@H](C)O)C(=O)N[C@@H](Cc3ccccc3)C(=O)N[C@H](CCCN)C(=O)N[C@@H](c3ccc(O[C@H]4O[C@H](CO)[C@@H](O)[C@H](O)[C@@H]4O[C@H]4O[C@H](CO)[C@@H](O)[C@H](O)[C@@H]4O)cc3)C(=O)N[C@H]([C@@H](C)O)C(=O)N[C@@H](c3ccc(O)cc3)C(=O)NCC(=O)N[C@@H](CC(C)C)C(=O)N[C@H](C)C(=O)N[C@@H](c3ccc(O)c(Cl)c3)C(=O)O[C@@H]2C(N)=O)cc1 | 0.25 µg/mL (≈ 0.0965 µM) | 0.25 µg/mL (≈ 0.0965 µM) | 0.25 µg/mL (≈ 0.0965 µM) | > 32 µg/mL | 47% | 2 µg/mL (≈ 0.772 µM) | 91% | 0.25 µg/mL (≈ 0.0965 µM) | 0.25 µg/mL (≈ 0.0965 µM) | 4 µg/mL (≈ 1.54 µM) | > 32 µg/mL | 0.5 µg/mL (≈ 0.193 µM) | < 0.03 µg/mL |
| CCCCC(=O)N[C@@H](CC(N)=O)C(=O)NC[C@@H]1C(=O)N[C@H](c2ccc(O)cc2)C(=O)N[C@H](CCCN)C(=O)N[C@H](C(C)C)C(=O)N[C@@H](c2ccc(O)cc2)C(=O)N[C@H](c2ccc(O)cc2)C(=O)N[C@@H]([C@@H](C)O)C(=O)N[C@@H](Cc2ccccc2)C(=O)N[C@H](CCCN)C(=O)N[C@@H](c2ccc(O[C@H]3O[C@H](CO)[C@@H](O)[C@H](O)[C@@H]3O[C@H]3O[C@H](CO)[C@@H](O)[C@H](O)[C@@H]3O)cc2)C(=O)N[C@H]([C@@H](C)O)C(=O)N[C@@H](c2ccc(O)cc2)C(=O)NCC(=O)N[C@@H](CC(C)C)C(=O)N[C@H](C)C(=O)N[C@@H](c2ccc(O)c(Cl)c2)C(=O)O[C@@H]1C(N)=O | 8 µg/mL (≈ 3.18 µM) | 8 µg/mL (≈ 3.18 µM) | 8 µg/mL (≈ 3.18 µM) | > 32 µg/mL | 0% | 32 µg/mL (≈ 12.7 µM) | 0% | 8 µg/mL (≈ 3.18 µM) | 8 µg/mL (≈ 3.18 µM) | > 32 µg/mL | > 32 µg/mL | 8 µg/mL (≈ 3.18 µM) | 0.125 µg/mL (≈ 0.0497 µM) |
| CCCCCCCCCC(=O)N[C@@H](CC(N)=O)C(=O)NC[C@@H]1C(=O)N[C@H](c2ccc(O)cc2)C(=O)N[C@H](CCCN)C(=O)N[C@H](C(C)C)C(=O)N[C@@H](c2ccc(O)cc2)C(=O)N[C@H](c2ccc(O)cc2)C(=O)N[C@@H]([C@@H](C)O)C(=O)N[C@@H](Cc2ccccc2)C(=O)N[C@H](CCCN)C(=O)N[C@@H](c2ccc(O[C@H]3O[C@H](CO)[C@@H](O)[C@H](O)[C@@H]3O[C@H]3O[C@H](CO)[C@@H](O)[C@H](O)[C@@H]3O)cc2)C(=O)N[C@H]([C@@H](C)O)C(=O)N[C@@H](c2ccc(O)cc2)C(=O)NCC(=O)N[C@@H](CC(C)C)C(=O)N[C@H](C)C(=O)N[C@@H](c2ccc(O)c(Cl)c2)C(=O)O[C@@H]1C(N)=O | 0.06 µg/mL (≈ 0.0232 µM) | 2 µg/mL (≈ 0.774 µM) | 0.125 µg/mL (≈ 0.0484 µM) | > 32 µg/mL | 0% | 4 µg/mL (≈ 1.55 µM) | 41% | 0.25 µg/mL (≈ 0.0967 µM) | 0.06 µg/mL (≈ 0.0232 µM) | 8 µg/mL (≈ 3.1 µM) | > 32 µg/mL | 2 µg/mL (≈ 0.774 µM) | 0.25 µg/mL (≈ 0.0967 µM) |
